Reference: patent US10323022B2, “Pyrrolidinyl urea, pyrrolidinyl thiourea and pyrrolidinyl guanidine compounds as TrkA kinase inhibitors” (Array BioPharma Inc., priority 2011, dated 2019)

target: TrkA (Homo sapiens (Human), UniProt P04629); assay: TrkA Omnia Assay; format: biochemical; details: averaged IC50; 20 nM enzyme, 500 μM ATP, 10 μM peptide substrate
Method in brief: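 Recombinant TrkA (20 nM) preincubated 10 min at ambient temperature with compound, then Omnia Tyr Peptide #4 (10 μM) and ATP (500 μM) added in 25 mM MOPS pH 7.5, 5 mM MgCl2, 0.005% Triton X-100. Fluorescence (ex 360/em 485 nm) followed continuously for 70 min; IC50 from initial rates by 4- or 5-parameter logistic fit.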

Sequence of TrkA (P04629 33-796): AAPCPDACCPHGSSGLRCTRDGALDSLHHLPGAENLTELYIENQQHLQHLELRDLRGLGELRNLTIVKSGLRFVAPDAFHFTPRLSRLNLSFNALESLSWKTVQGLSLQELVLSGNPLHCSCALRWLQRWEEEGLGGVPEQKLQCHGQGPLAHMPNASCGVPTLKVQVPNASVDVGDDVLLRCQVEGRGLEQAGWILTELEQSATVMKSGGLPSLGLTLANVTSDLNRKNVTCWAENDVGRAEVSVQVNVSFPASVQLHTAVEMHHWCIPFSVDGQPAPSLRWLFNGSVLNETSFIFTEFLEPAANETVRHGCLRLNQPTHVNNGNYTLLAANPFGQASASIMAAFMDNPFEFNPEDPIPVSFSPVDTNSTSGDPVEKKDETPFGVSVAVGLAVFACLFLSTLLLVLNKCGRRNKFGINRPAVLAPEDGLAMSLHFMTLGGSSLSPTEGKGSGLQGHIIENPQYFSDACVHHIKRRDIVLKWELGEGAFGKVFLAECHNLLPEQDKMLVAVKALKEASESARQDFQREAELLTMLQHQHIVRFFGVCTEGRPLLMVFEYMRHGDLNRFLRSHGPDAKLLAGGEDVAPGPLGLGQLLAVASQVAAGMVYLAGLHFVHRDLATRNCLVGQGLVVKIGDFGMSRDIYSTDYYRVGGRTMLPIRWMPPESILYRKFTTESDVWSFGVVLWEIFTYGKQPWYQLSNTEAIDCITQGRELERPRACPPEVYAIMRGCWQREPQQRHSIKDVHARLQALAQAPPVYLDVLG

| Compound | IC50 |
| --- | --- |
| COCCN1C[C@@H](NC(=O)Nc2c(Cl)c(-c3cccnc3)nn2-c2ccccc2)[C@H](c2ccc(F)c(F)c2)C1 [Example 482, 1-(4-chloro-1-phenyl-3-(pyridin-3-yl)-1H-pyrazol-5-yl)-3-((3S,4R)-4-(3,4-difluorophenyl)-1-(2-methoxyethyl)pyrrolidin-3-yl)urea] | < 100 nM |
| COCCN1C[C@@H](NC(=O)Nc2c(Cl)c(-c3ccccc3)nn2-c2cccnc2)[C@H](c2ccc(F)c(F)c2)C1 [Example 485, 1-(4-chloro-3-phenyl-1-(pyridin-3-yl)-1H-pyrazol-5-yl)-3-((3S,4R)-4-(3,4-difluorophenyl)-1-(2-methoxyethyl)pyrrolidin-3-yl)urea] | 100 to 1000 nM |
| COCCN1C[C@@H](NC(=O)Nc2c(C)c(-c3ccn(C)n3)nn2-c2ccccc2)[C@H](c2ccc(F)cc2)C1 [Example 492, 1-(1′,4-dimethyl-1-phenyl-1H, 1′H-[3,3′-bipyrazol]-5-yl)-3-((3S,4R)-4-(4-fluorophenyl)-1-(2-methoxyethyl)pyrrolidin-3-yl)urea] | < 100 nM |
| COCCN1C[C@@H](NC(=O)Nc2c(C)c(-c3ccnn3C)nn2-c2ccccc2)[C@H](c2ccc(F)c(F)c2)C1 [Example 494, 1-((3S,4R)-4-(3,4-difluorophenyl)-1-(2-methoxyethyl)pyrrolidin-3-yl)-3-(2′,4-dimethyl-1-phenyl-1H,2′H-[3,3′-bipyrazol]-5-yl)urea] | < 100 nM |
| COCCN1C[C@@H](NC(=O)Nc2c(C)c(-c3cnn(C)c3)nn2-c2cncc(C)c2)[C@H](c2ccc(F)c(F)c2)C1 [Example 496, 1-((3S,4R)-4-(3,4-difluorophenyvl)-1-(2-methoxyethyl)pyrrolidin-3-yl)-3-(1′,4-dimethyl-1-(5-methylpyridin-3-yl)-1H, 1′H-[3,4′-bipyrazol]-5-yl)urea] | 100 to 1000 nM |
| COCCN1C[C@@H](NC(=O)Nc2c(C)c(-c3cnn(C)c3)nn2-c2cncc(Cl)c2)[C@H](c2ccc(F)c(F)c2)C1 [Example 497, 1-(1-(5-chloropyridin-3-yl)-1′,4-dimethyl-1H, 1′H-[3,4′-bipyrazol]-5-yl)-3-((3 S,4R)-4-(3,4-difluorophenyl)-1-(2-methoxyethyl)pyrrolidin-3-yl)urea] | 100 to 1000 nM |
| COCCN1C[C@@H](NC(=O)Nc2c(C)c(-c3cnn(C(OCC(F)(F)F)C(F)(F)F)c3)nn2-c2ccccc2)[C@H](c2ccc(F)c(F)c2)C1 (stereo partly drawn) [Example 498, 1-((3S,4R)-4-(3,4-difluorophenyvl)-1-(2-methoxyethyl)pyrrolidin-3-yl)-3-(4-methyl-1-phenyl-1′-(2,2,2-trifluoro-1-(2,2,2-trifluoroethoxy)ethyl)-1H,1′H-[3,4′-bipyrazol]-5-yl)urea] | < 100 nM |
| COCCN1C[C@@H](NC(=O)Nc2c(C)c(-c3cnn(S(C)(=O)=O)c3)nn2-c2ccccc2)[C@H](c2ccc(F)c(F)c2)C1 [Example 502, 1-((3S,4R)-4-(3,4-difluorophenyl)-1-(2-methoxyethyl)pyrrolidin-3-yl)-3-(4-methyl-1′-(methylsulfonyl)-1-phenyl-1H, 1′H-[3,4′-bipyrazol]-5-yl)urea] | < 100 nM |
| COCCN1C[C@@H](NC(=O)Nc2c(C)c(-c3cnn(C(C)C)c3)nn2-c2ccccc2)[C@H](c2ccc(F)c(F)c2)C1 [Example 503, 1-((3S,4R)-4-(3,4-difluorophenyvl)-1-(2-methoxyethyl)pyrrolidin-3-yl)-3-(1′-isopropyl-4-methyl-1-phenyl-1H, 1′H-[3,4′-bipyrazol]-5-yl)urea] | < 100 nM |
| COCCN1C[C@@H](NC(=O)Nc2c(C)c(-c3ccn(C)c(=O)c3)nn2-c2ccccc2)[C@H](c2ccc(F)c(F)c2)C1 [Example 505, 1-((3S,4R)-4-(3,4-difluorophenyl)-1-(2-methoxyethyl)pyrrolidin-3-yl)-3-(4-methyl-3-(1-methyl-2-oxo-1,2-dihydropyridin-4-yl)-1-phenyl-1H-pyrazol-5-yl)urea] | < 100 nM |
| COCCN1C[C@@H](NC(=O)Nc2c(C)c(-c3ccc(=O)n(C)c3)nn2-c2ccccc2)[C@H](c2ccc(F)c(F)c2)C1 [Example 506, 1-((3S,4R)-4-(3,4-difluorophenyl)-1-(2-methoxyethyl)pyrrolidin-3-yl)-3-(4-methyl-3-(1-methyl-6-oxo-1,6-dihydropyridin-3-yl)-1-phenyl-1H-pyrazol-5-yl)urea] | < 100 nM |
| COCCN1C[C@@H](NC(=O)Nc2c(C)c(-c3cnn(C)c3C)nn2-c2ccccc2)[C@H](c2ccc(F)c(F)c2)C1 [Example 507, 1-((3S,4R)-4-(3,4-difluorophenyl)-1-(2-methoxyethyl)pyrrolidin-3-yl)-3-(1′,4,5′-trimethyl-1-phenyl-1H,1′H-[3,4′-bipyrazol]-5-yl)urea] | < 100 nM |

Now from value to compound:

| IC50 | Compound |
| --- | --- |
| < 100 nM | COCCN1C[C@@H](NC(=O)Nc2c(Br)c(-c3cccnc3)nn2-c2ccccc2)[C@H](c2ccc(F)c(F)c2)C1 [Example 483, 1-(4-bromo-1-phenyl-3-(pyridin-3-yl)-1H-pyrazol-5-yl)-3-((3 S,4R)-4-(3,4-difluorophenyl)-1-(2-methoxyethyl)pyrrolidin-3-yl)urea] |
| < 100 nM | COCCN1C[C@@H](NC(=O)Nc2c(Br)c(-c3ccccn3)nn2-c2ccccc2)[C@H](c2ccc(F)c(F)c2)C1 [Example 484, 1-(4-bromo-1-phenyl-3-(pyridin-2-yl)-1H-pyrazol-5-yl)-3-((3S,4R)-4-(3,4-difluorophenyl)-1-(2-methoxyethyl)pyrrolidin-3-yl)urea] |
| < 100 nM | COCCN1C[C@@H](NC(=O)Nc2c(C)c(-c3cccnc3)nn2-c2ccccc2)[C@H](c2ccc(F)c(F)c2)C1 [Example 486, 1-((3S,4R)-4-(3,4-difluorophenyl)-1-(2-methoxyethyl)pyrrolidin-3-yl)-3-(4-methyl-1-phenyl-3-(pyridin-3-yl)-1H-pyrazol-5-yl)urea] |
| < 100 nM | COCCN1C[C@@H](NC(=O)Nc2c(C)c(-c3ccncc3)nn2-c2ccccc2)[C@H](c2ccc(F)c(F)c2)C1 [Example 487, 1-((3S,4R)-4-(3,4-difluorophenyl)-1-(2-methoxyethyl)pyrrolidin-3-yl)-3-(4-methyl-1-phenyl-3-(pyridin-4-yl)-1H-pyrazol-5-yl)urea] |
| < 100 nM | COCCN1C[C@@H](NC(=O)Nc2c(C)c(-c3ccccn3)nn2-c2ccccc2)[C@H](c2ccc(F)c(F)c2)C1 [Example 488, 1-((3S,4R)-4-(3,4-difluorophenyl)-1-(2-methoxyethyl)pyrrolidin-3-yl)-3-(4-methyl-1-phenyl-3-(pyridin-2-yl)-1H-pyrazol-5-yl)urea] |
| < 100 nM | COCCN1C[C@@H](NC(=O)Nc2c(C)c(-c3cncc(F)c3)nn2-c2ccccc2)[C@H](c2ccc(F)c(F)c2)C1 [Example 489, 1-((3S,4R)-4-(3,4-difluorophenyl)-1-(2-methoxyethyl)pyrrolidin-3-yl)-3-(3-(5-fluoropyridin-3-yl)-4-methyl-1-phenyl-1H-pyrazol-5-yl)urea] |
| < 100 nM | COCCN1C[C@@H](NC(=O)Nc2c(C)c(-c3cncc(F)c3)nn2-c2cccnc2)[C@H](c2ccc(F)c(F)c2)C1 [Example 490, 1-((3S,4R)-4-(3,4-difluorophenyl)-1-(2-methoxyethyl)pyrrolidin-3-yl)-3-(3-(5-fluoropyridin-3-yl)-4-methyl-1-(pyridin-3-yl)-1H-pyrazol-5-yl)urea] |
| < 100 nM | COCCN1C[C@@H](NC(=O)Nc2c(C)c(-c3ccn(C)n3)nn2-c2ccccc2)[C@H](c2ccc(F)c(F)c2)C1 [Example 491, 1-((3S,4R)-4-(3,4-difluorophenyl)-1-(2-methoxyethyl)pyrrolidin-3-yl)-3-(1′,4-dimethyl-1-phenyl-1H,1′H-[3,3′-bipyrazol]-5-yl)urea] |
| < 100 nM | COCCN1C[C@@H](NC(=O)Nc2c(C)c(-c3ccn(C)n3)nn2-c2ccccc2)[C@H](c2cc(F)cc(F)c2)C1 [Example 493, 1-((3S,4R)-4-(3,5-difluorophenyvl)-1-(2-methoxyethyl)pyrrolidin-3-yl)-3-(1′,4-dimethyl-1-phenyl-1H,1′H-[3,3′-bipyrazol]-5-yl)urea] |
| < 100 nM | COCCN1C[C@@H](NC(=O)Nc2c(C)c(-c3cnn(C)c3)nn2-c2cncc(F)c2)[C@H](c2ccc(F)c(F)c2)C1 [Example 495, 1-((3S,4R)-4-(3,4-difluorophenyl)-1-(2-methoxyethyl)pyrrolidin-3-yl)-3-(1-(5-fluoropyridin-3-yl)-1′,4-dimethyl-1H, 1′H-[3,4′-bipyrazol]-5-yl)urea] |
| < 100 nM | COCCN1C[C@@H](NC(=O)Nc2c(C)c(-c3cnn(CC(F)(F)F)c3)nn2-c2ccccc2)[C@H](c2ccc(F)c(F)c2)C1 [Example 499, 1-((3S,4R)-4-(3,4-difluorophenyl)-1-(2-methoxyethyl)pyrrolidin-3-yl)-3-(4-methyl-1-phenyl-1′-(2,2,2-trifluoroethyl)-1H, 1′H-[3,4′-bipyrazol]-5-yl)urea] |
| < 100 nM | COCCN1C[C@@H](NC(=O)Nc2c(C)c(-c3cnn(CC4CC4)c3)nn2-c2ccccc2)[C@H](c2ccc(F)c(F)c2)C1 [Example 500, 1-(1′-(cyclopropylmethyl)-4-methyl-l-phenyl-1H, 1′H-[3,4′-bipyrazol]-5-yl)-3-((3S,4R)-4-(3,4-difluorophenyl)-1-(2-methoxyethyl)pyrrolidin-3-yl)urea] |
| < 100 nM | COCCN1C[C@@H](NC(=O)Nc2c(C)c(-c3cnn(C(=O)C4CC4)c3)nn2-c2ccccc2)[C@H](c2ccc(F)c(F)c2)C1 [Example 501, 1-(1′-(cyclopropanecarbonyl)-4-methyl-1-phenyl-1H,1′H-[3,4′-bipyrazol]-5-yl)-3-((3S,4R)-4-(3,4-difluorophenyl)-1-(2-methoxyethyl)pyrrolidin-3-yl)urea] |
| < 100 nM | COCCN1C[C@@H](NC(=O)Nc2c(C)c(-c3cncnc3)nn2-c2ccccc2)[C@H](c2ccc(F)c(F)c2)C1 [Example 504, 1-((3S,4R)-4-(3,4-difluorophenyl)-1-(2-methoxyethyl)pyrrolidin-3-yl)-3-(4-methyl-1-phenyl-3-(pyrimidin-5-yl)-1H-pyrazol-5-yl)urea] |
